From ChEMBL document CHEMBL1201862, “PubChem BioAssay data set” (2004)
Calls of active or inactive are those of the source.

What was measured:
[1] = target: T1, Apoptotic protease-activating factor 1 (Homo sapiens, UniProt O14727); format: functional
T1 sequence (O14727 whole entry): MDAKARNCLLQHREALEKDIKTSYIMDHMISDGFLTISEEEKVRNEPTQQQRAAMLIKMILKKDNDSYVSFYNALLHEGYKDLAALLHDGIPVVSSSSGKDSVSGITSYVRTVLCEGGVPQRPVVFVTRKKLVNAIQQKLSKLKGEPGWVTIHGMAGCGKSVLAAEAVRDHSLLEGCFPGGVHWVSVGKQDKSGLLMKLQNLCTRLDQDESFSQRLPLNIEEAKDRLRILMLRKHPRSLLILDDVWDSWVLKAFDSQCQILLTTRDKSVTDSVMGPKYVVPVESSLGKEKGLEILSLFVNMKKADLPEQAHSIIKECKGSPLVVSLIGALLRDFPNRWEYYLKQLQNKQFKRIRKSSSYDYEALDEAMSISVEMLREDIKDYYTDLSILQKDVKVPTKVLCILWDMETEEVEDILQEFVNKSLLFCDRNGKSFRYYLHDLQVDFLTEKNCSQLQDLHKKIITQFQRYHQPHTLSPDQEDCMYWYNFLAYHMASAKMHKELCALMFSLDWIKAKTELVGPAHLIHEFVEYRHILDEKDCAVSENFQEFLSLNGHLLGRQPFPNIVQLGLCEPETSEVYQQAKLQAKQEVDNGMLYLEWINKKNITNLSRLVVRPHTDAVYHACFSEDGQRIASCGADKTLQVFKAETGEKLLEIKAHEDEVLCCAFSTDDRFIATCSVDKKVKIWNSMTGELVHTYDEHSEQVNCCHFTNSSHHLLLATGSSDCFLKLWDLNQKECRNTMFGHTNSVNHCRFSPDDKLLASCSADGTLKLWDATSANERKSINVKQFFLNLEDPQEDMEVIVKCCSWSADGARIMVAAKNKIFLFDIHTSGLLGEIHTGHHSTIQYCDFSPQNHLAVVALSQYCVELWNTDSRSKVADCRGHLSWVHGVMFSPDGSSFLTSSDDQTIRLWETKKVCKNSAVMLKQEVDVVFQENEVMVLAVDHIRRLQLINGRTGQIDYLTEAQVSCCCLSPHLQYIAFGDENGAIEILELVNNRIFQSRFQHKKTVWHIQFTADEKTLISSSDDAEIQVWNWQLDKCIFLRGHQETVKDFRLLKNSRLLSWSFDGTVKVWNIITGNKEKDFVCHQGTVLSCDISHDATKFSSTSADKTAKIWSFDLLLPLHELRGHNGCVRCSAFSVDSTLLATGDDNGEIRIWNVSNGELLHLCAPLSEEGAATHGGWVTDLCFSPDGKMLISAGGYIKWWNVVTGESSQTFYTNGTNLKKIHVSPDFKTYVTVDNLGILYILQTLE

[2] = target: T2, Calpain-2 catalytic subunit (Sus scrofa, UniProt P43367); test: m-calpain protease blockers, concentration series – biochemical, fluorogenic peptide substrate, dose response (AID 1420); format: functional
T2 sequence (P43367 whole entry): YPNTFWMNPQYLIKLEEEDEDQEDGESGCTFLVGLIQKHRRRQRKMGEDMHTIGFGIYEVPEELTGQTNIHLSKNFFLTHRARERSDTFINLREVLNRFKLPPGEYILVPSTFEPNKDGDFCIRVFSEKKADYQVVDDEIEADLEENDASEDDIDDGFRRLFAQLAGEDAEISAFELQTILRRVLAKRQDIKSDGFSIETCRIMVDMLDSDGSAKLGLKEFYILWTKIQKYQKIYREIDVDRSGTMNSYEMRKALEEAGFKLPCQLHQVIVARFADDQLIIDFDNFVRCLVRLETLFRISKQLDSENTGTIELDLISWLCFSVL

[3] = target: T3, Polyadenylate-binding protein 1 (Homo sapiens, UniProt P11940); test: MLLE binding blockers, Cy5 peptide tracer – biochemical, fluorescence polarization, Cy5-PAM2 peptide, secondary, miRNA deadenylation inhibitor project, dose response (AID 602260); format: functional; settings: read-out: IC50_Mean
[4] = target: T3, Polyadenylate-binding protein 1; test: MLLE domain peptide-binding blockers, IC50 – biochemical, fluorescence polarization, FITC-PAM2 peptide, dose response (AID 602259); format: functional; settings: read-out: IC50_Mean
[5] = target: T4, Oxysterols receptor LXR-beta (Homo sapiens, UniProt P55055); format: functional, cell-based;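 note: agonist activity at LXR measured by a cell-based luminescence readout across a dose range, run as a counterscreen for daf-12 agonists; HEK293 cells with Gal4-LXR fusion and GAL4-driven luciferase reporter; potency for activation of Gal4-LXR reporter so compounds are agonists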
T4 sequence (P55055 whole entry): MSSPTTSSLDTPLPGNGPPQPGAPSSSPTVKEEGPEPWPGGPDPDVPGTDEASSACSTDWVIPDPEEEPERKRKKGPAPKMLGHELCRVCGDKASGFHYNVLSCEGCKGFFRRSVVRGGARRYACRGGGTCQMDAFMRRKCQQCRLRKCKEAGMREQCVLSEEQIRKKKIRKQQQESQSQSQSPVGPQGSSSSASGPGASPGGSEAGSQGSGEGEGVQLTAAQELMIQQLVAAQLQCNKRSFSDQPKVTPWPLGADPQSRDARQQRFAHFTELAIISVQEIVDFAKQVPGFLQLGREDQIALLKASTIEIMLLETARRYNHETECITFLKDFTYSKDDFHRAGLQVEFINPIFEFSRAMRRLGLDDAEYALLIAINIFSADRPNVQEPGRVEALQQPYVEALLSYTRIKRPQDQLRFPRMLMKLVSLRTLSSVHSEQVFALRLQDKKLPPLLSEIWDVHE

[6] = microbe, parasite or virus in culture; format: functional; settings: Mycobacterium tuberculosis
[7] = target: T5, Ubiquitin-conjugating enzyme E2 N (Homo sapiens, UniProt P61088); format: functional;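 note: Dose-response confirmation in a TR-FRET assay detecting UBC13-driven polyubiquitin chain formation, inhibition measured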
T5 sequence (P61088 whole entry): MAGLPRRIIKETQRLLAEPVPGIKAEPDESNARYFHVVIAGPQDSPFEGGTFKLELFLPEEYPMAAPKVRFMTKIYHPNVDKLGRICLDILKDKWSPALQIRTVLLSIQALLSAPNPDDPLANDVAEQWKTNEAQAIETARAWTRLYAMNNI

[8] = HIV-1 AD8 envelope cell-cell fusion blockers – cherry-pick, dose response (AID 652062); format: functional, cell-based;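 note: luciferase signal from cell-cell fusion driven by HIV-1 clade B AD8 Env; potency is for inhibitors of fusion seen as a drop in luminescence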
[9] = blockers of HIV-1 ZM109 envelope-driven cell-cell fusion – HeLa effector, CEM target cells, luciferase, cherry-pick, dose response (AID 652058); format: functional, cell-based;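 note: luciferase signal from HIV-1 Env mediated cell-cell fusion of effector and target cells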
[10] = off-target signal loss in HeLa-CEM21 co-culture – HeLa F-luc CTL cells, cherry-picked, counter-screen for HIV-1 Env fusion inhibitor project, dose response (AID 652040); format: functional, cell-based;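 note: potency for signal decrease marking cytotoxic or nonspecific inhibition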
[11] = blockers of HIV-1 envelope-mediated cell-cell fusion – cherry-pick, dose response (AID 652057); format: functional, cell-based
[12] = test system: H4; test: Luminescence Cell-Based Dose Response HTS to Identify Activators of 5'UTR Stem-Loop Driven Prion Protein mRNA Translation in H4 Neuroglioblastoma Cells. [Related pubchem assays: 1829 (Project Summary), 1814 (Primary HTS)]; format: functional; settings: Homo sapiens

T3 sequence (P11940 whole entry, the tested form may be a part): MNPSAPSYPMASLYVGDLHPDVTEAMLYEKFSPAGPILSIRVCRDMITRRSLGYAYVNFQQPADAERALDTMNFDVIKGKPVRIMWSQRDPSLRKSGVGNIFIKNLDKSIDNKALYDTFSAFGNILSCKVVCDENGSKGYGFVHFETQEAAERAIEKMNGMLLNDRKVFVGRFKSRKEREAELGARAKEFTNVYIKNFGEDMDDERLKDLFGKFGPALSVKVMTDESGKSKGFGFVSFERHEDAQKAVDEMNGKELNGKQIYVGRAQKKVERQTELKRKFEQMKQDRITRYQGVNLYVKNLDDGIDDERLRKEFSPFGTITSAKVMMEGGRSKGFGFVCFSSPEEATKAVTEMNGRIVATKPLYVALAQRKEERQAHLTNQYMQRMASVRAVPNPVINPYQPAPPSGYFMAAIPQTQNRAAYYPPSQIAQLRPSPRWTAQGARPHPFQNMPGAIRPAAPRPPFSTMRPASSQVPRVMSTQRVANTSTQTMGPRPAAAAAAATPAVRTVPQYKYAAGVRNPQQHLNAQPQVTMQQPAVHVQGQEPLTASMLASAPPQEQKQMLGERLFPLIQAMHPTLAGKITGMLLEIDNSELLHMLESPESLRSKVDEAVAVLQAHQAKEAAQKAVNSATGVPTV

Compound: CN(C)S(=O)(=O)c1ccc2oc(SCC(=O)Nc3ccccc3F)nc2c1
- IC50 [1]: 7.98 µM (active)

Compound: Fc1ccccc1COc1ccc(Br)cc1CNCc1ccncc1
- IC50 [2]: > 50 µM (not active)

Compound: Nc1nc(-c2cccc(F)c2)cs1
- IC50 [3]: > 66 µM (inactive)
- IC50 [4]: > 66 µM (inactive)

Compound: CN(c1ccccc1)S(=O)(=O)c1cccc(C(=O)NC2CCCCC2)c1
- IC50 [3]: > 66 µM (inactive)
- IC50 [4]: > 66 µM (inactive)

Compound: CCN(CC(=O)Nc1ccccc1OC)C(=O)c1ccccc1Sc1ccccc1C#N
- IC50 [1]: > 100 µM (inactive)

Compound: CCOC(=O)N1CCC(NC(=O)c2cc3ccccn3n2)CC1
- EC50 [5]: > 67.5 µM (inactive)

Compound: O=C(C1=C[C@@H](c2csc3ccccc23)C[C@@H](OCCCCO)O1)N1CCN(Cc2ccc3c(c2)OCO3)CC1
- CC50 [6]: > 40 µM (active)

Compound: C=CCN(CC=C)Cc1nc(N)nc(Nc2ccccc2C)n1
- IC50 [2]: < 0.4 µM (not active)

Compound: Cc1cc(NC(=S)N(Cc2ccc(Br)cc2)Cc2ccc(C(=O)O)cc2)ccc1Cl
- IC50 [2]: 4.69 µM (not active)

Compound: COc1ccc(C[C@H]2CN3C(=NC[C@H]3Cc3ccccc3)N2CCNC(=O)c2ccc(C)c(Br)c2)cc1
- IC50 [7]: > 20 µM (inactive)
- IC50 [1]: > 100 µM (inactive)

Compound: CCc1nnc(NS(=O)(=O)c2ccc(NC(=S)NC(=O)c3ccc(Br)cc3)cc2)s1
- IC50 [2]: 6.7 µM (active)

Compound: COc1cc2c(c(OCC(=O)NC(C)C)c1)C(=O)O[C@@H](C)CCCC(=O)CCCCC2
- AC50 [8]: 11.3 µM (active)
- IC50 [3]: > 66 µM (inactive)
- IC50 [4]: 63.7 µM (inactive)
- AC50 [9]: 4.75 µM (active)
- AC50 [10]: 5.78 µM (active)
- AC50 [11]: 4.35 µM (active)

Compound: Cc1cc(C(=O)NC2CCCCC2)c(C)n1-c1ccc(F)cc1
- EC50 [12]: 0.455 µM (active)
- EC50 [5]: > 67.5 µM (inactive)

Compound: CCOc1ccc(NC(=S)NC(=O)c2cccnc2)c([N+](=O)[O-])c1
- IC50 [3]: > 66 µM (inactive)
- IC50 [4]: > 66 µM (inactive)
